The inhibition is the change of the read-out against control, counted positive when it falls.

Assay [1] deals with Human acute myeloid leukemia MV4-11 cells. Kind of assay: Cell proliferation-suppressing activity, chromogenic method (Cell Counting Kit-8). The assay is classed as cell-based. The conditions noted are these: compound 1 μM, 48 hours, Cell Counting Kit-8, absorbance 450 nm. The method, then:
Measurement of Cell Proliferation-Suppressing Activity (Chromogenic Method)
Human acute myeloid leukemia MV4-11 cells (2×10^4 cells) are inoculated on a 96-well microtiter plate. Each compound is added at a final concentration of 1 μM on the next day, and the cells are cultured for additional 48 hours. Absorbance is measured at 450 nm by using Cell Counting Kit-8 (Nacalai Tesque) to calculate the cell proliferation-suppressing activity.
For orientation: Tetrazolium dyes change colour on reduction, which living cells bring about.

A further assay addresses pim-1 kinase (Homo sapiens, UniProt P11309). Briefly: Measurement of pim-1 kinase inhibitory activity (fluorescent substrate peptide, capillary electrophoresis). Format: biochemical. The conditions noted are these: 0.1 μM of each compound, 30 μM ATP, 1.5 μM substrate peptide, room temperature 2 hours. The method, then:
Measurement of Pim-1 Kinase Inhibitory Activity
The result of the reaction was determined by quantifying the substrate and the phosphorylated reaction product separated by capillary electrophoresis based on difference in charges of the substances (EZ Reader II, Caliper Life Sciences, was used).

Sequence of pim-1 kinase (P11309 whole entry): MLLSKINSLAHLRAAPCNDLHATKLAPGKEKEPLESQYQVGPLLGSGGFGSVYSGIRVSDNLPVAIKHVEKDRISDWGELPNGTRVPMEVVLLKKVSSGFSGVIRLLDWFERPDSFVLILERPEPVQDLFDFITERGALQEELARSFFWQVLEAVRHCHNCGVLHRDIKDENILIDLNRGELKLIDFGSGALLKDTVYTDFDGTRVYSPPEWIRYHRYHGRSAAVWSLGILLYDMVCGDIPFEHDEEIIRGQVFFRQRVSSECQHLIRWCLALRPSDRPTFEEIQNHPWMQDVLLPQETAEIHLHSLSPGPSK

`O=C1/C(=C/c2c[nH]c3ccccc23)Oc2c1ccc(O)c2CN1CCCNCC1` [Compound A55, (Z)-7-[(1,4-Diazepan-1-yl)methyl]-2-[(1H-indol-3-yl)methylene]-6-hydroxybenzofuran-3(2H)-one]: testing at 1 µM in assay [1] (Table 6) gave an inhibition of 79%. Also, the inhibition at 0.1 µM against pim-1 kinase (Table 1) stood at 46%. In turn, `O=C1/C(=C/c2c[nH]c3ccccc23)Oc2c(CN3CCNCC3)cccc21` [Compound A56, (Z)-2-[(1H-indol-3-yl)methylene]-7-(piperazin-1-ylmethyl)benzofuran-3(2H)-one] yielded an inhibition at 1 µM in assay [1] (Table 6) of 43%. The compound also showed an inhibition at 0.1 µM against pim-1 kinase (Table 1) of 80%. Consider `COc1ccc2c(c1CN1CCNCC1)O/C(=C\c1cn(S(=O)(=O)c3ccc(C)cc3)c3ccccc13)C2=O` [Compound A57, (Z)-6-Methoxy-7-(piperazin-1-ylmethyl)-2-[(1-tosyl-1H-indol-3-yl)methylene]benzofuran-3(2H)-one], for which the inhibition at 1 µM in assay [1] (Table 6) came out at 37%. At pim-1 kinase (Table 1), this compound yielded an inhibition at 0.1 µM of 28%. As for `O=C1/C(=C/c2c[nH]c3ncccc23)Oc2c(CN3CCNCC3)cccc21` [Compound A58, (Z)-2-[(1H-Pyrrolo[2,3-b]pyridin-3-yl)methylene]-7-(piperazin-1-ylmethyl)benzofuran-3(2H)-one], the inhibition at 1 µM in assay [1] (Table 6) amounted to 72%. The inhibition at 0.1 µM against pim-1 kinase (Table 1) is 92%.

As for `CCOc1ccc2c(c1CN1CCNCC1)O/C(=C\c1c[nH]c3ccccc13)C2=O` [Compound A59, (Z)-2-[(1H-Indol-3-yl)methylene]-6-ethoxy-7-(piperazin-1-ylmethyl)benzofuran-3(2H)-one], the inhibition at 1 µM in assay [1] (Table 6) is 95%. Further, the inhibition at 0.1 µM on pim-1 kinase (Table 1) is 92%. Turning to `CCCOc1ccc2c(c1CN1CCNCC1)O/C(=C\c1c[nH]c3ccccc13)C2=O` [Compound A60, (Z)-2-((1H-Indol-3-yl)methylene)-7-(piperazin-1-ylmethyl)-6-propoxybenzofuran-3(2H)-one], in assay [1] (Table 6), at 1 µM the inhibition was 91%. On pim-1 kinase (Table 1), this compound returned an inhibition at 0.1 µM of 84%. The corresponding values for `O=C1/C(=C/c2c[nH]c3ccccc23)Oc2c1ccc(OCc1ccccc1)c2CN1CCNCC1` [Compound A61, (Z)-2-[(1H-Indol-3-yl)methylene]-6-(benzyloxy)-7-(piperazin-1-ylmethyl)benzofuran-3(2H)-one] are 58% and 66%.

On pim-1 kinase (Table 2), `O=C1/C(=C/c2n[nH]c3ccc(F)cc23)Oc2c1ccc(O)c2CN1CCNCC1` [Compound B8, (Z)-6-Hydroxy-7-(piperazin-1-ylmethyl)-2-[(5-fluoro-1H-indazol-3-yl)methylene]benzofuran-3(2H)-one] came in with an inhibition at 0.1 µM of 81%.

For `O=C1/C(=C/c2n[nH]c3ccc(Cl)cc23)Oc2c1ccc(O)c2CN1CCNCC1` [Compound B9, (Z)-6-Hydroxy-7-(piperazin-1-ylmethyl)-2-[(5-chloro-1H-indazol-3-yl)methylene]benzofuran-3(2H)-one], the inhibition at 0.1 µM against pim-1 kinase (Table 2) was 93%. On pim-1 kinase (Table 2), `O=C1/C(=C/c2n[nH]c3ccc(Br)cc23)Oc2c1ccc(O)c2CN1CCNCC1` [Compound B10, (Z)-6-Hydroxy-7-(piperazin-1-ylmethyl)-2-[(5-bromo-1H-indazol-3-yl)methylene]benzofuran-3(2H)-one] showed an inhibition at 0.1 µM of 94%. `COc1ccc2[nH]nc(/C=C3\Oc4c(ccc(O)c4CN4CCNCC4)C3=O)c2c1` [Compound B11, (Z)-6-Hydroxy-7-(piperazin-1-ylmethyl)-2-[(5-methoxy-1H-indazol-3-yl)methylene]benzofuran-3(2H)-one]: the inhibition at 0.1 µM against pim-1 kinase (Table 2) came to 87%.

Consider `O=C1/C(=C/c2n[nH]c3ccc(OC(F)(F)F)cc23)Oc2c1ccc(O)c2CN1CCNCC1` [Compound B12, (Z)-6-Hydroxy-7-(piperazin-1-ylmethyl)-2-{[5-(trifluoromethoxy)-1H-indazol-3-yl]methylene}benzofuran-3(2H)-one], for which, on pim-1 kinase (Table 2), testing at 0.1 µM gave an inhibition of 90%. With `O=C1/C(=C/c2n[nH]c3ccccc23)Oc2c1cc(Cl)c(O)c2CN1CCNCC1` [Compound B13, (Z)-2-[(1H-Indazol-3-yl)methylene]-5-chloro-6-hydroxy-7-(piperazin-1-ylmethyl)benzofuran-3(2H)-one], the inhibition at 0.1 µM against pim-1 kinase (Table 2) came to 88%. `O=C1/C(=C/c2n[nH]c3ccc(F)cc23)Oc2c1cc(Cl)c(O)c2CN1CCNCC1` [Compound B14, (Z)-5-Chloro-2-[(5-fluoro-1H-indazol-3-yl)methylene]-6-hydroxy-7-(piperazin-1-ylmethyl)benzofuran-3(2H)-one]: the inhibition at 0.1 µM at pim-1 kinase (Table 2) was 80%. For `O=C1/C(=C/c2n[nH]c3ccc(Cl)cc23)Oc2c1cc(Cl)c(O)c2CN1CCNCC1` [Compound B15, (Z)-5-Chloro-2-[(5-chloro-1H-indazol-3-yl)methylene]-6-hydroxy-7-(piperazin-1-ylmethyl)benzofuran-3(2H)-one], at 0.1 µM the inhibition against pim-1 kinase (Table 2) was 90%. On pim-1 kinase (Table 2), `O=C1/C(=C/c2n[nH]c3ccc(Br)cc23)Oc2c1cc(Cl)c(O)c2CN1CCNCC1` [Compound B16, (Z)-5-Chloro-2-[(5-bromo-1H-indazol-3-yl)methylene]-6-hydroxy-7-(piperazin-1-ylmethyl)benzofuran-3(2H)-one] showed an inhibition at 0.1 µM of 93%. Regarding `COc1ccc2c(c1C(C)N1CCNCC1)O/C(=C\c1n[nH]c3ccccc13)C2=O` (stereo not drawn) [Compound B20, (Z)-2-[(1H-Indazol-3-yl)methylene]-6-methoxy-7-[1-(piperazin-1-yl)-ethyl]benzofuran-3(2H)-one], the inhibition at 0.1 µM against pim-1 kinase (Table 2) was 95%. As for `O=C1/C(=C/c2n[nH]c3ccccc23)Oc2c1ccc(OCc1ccccc1)c2CN1CCNCC1` [Compound B28, (Z)-2-[(1H-Indazol-3-yl)methylene]-6-(benzyloxy)-7-(piperazin-ylmethyl)benzofuran-3(2H)-one], on pim-1 kinase (Table 2), the “Pim-1 kinase inhibitory activity (%)” value stood at 92%. At pim-1 kinase (Table 2), `COc1ccc2c(c1CN1CCN(C)CC1)O/C(=C\c1n[nH]c3ccccc13)C2=O` [Compound B32, (Z)-2-[(1H-Indazol-3-yl)methylene]-6-methoxy-7-[(4-methylpiperazin-1-yl)methyl]benzofuran-3(2H)-one] registered an inhibition at 0.1 µM of 63%. With `COc1ccc2c(c1CN1CCOCC1)O/C(=C\c1n[nH]c3ccccc13)C2=O` [Compound B33, (Z)-2-[(1H-Indazol-3-yl)methylene]-6-methoxy-7-(morpholinomethyl)benzofuran-3(2H)-one], 0.1 µM produced 39% inhibition against pim-1 kinase (Table 2). `O=C1/C(=C/c2n[nH]c3ccccc23)Oc2c1ccc(OCCO)c2CN1CCNCC1` [Compound B34, (Z)-2-[(1H-Indazol-3-yl)methylene]-6-(2-hydroxyethoxy)-7-(piperazin-1-ylmethyl)benzofuran-3(2H)-one]: at pim-1 kinase (Table 2), the inhibition at 0.1 µM was 94%. As for `O=C1/C(=C/c2n[nH]c3ccccc23)Oc2c1ccc(O)c2C(=O)N1CCNCC1` [Compound B36, (Z)-2-[(1H-Indazol-3-yl)methylene]-6-hydroxy-7-(piperazine-1-carbonyl)benzofuran-3(2H)-one], the inhibition at 0.1 µM against pim-1 kinase (Table 2) was 31%.

`CN1CCN(Cc2cc(Cl)cc3c2O/C(=C\c2n[nH]c4ccccc24)C3=O)CC1` [Compound B40, (Z)-2-[(1H-Indazol-3-yl)methylene]-5-chloro-7-[(4-methylpiperazin-1-yl)methyl]benzofuran-3(2H)-one] returned an inhibition at 0.1 µM against pim-1 kinase (Table 2) of 14%. Compound `O=C1/C(=C/c2n[nH]c3ccccc23)Oc2c(CN3CCNCC3)cccc21` [Compound B45, (Z)-2-[(1H-Indazol-3-yl)methylene]-7-(piperazin-1-ylmethyl)benzofuran-3(2H)-one] came in with an inhibition at 1 µM in assay [1] (Table 7) of 28%. This compound yielded an inhibition at 0.1 µM on pim-1 kinase (Table 2) of 79%. Compound `COc1ccc2c(c1C#CCN1CCNCC1)O/C(=C\c1n[nH]c3ccccc13)C2=O` [Compound B46, (Z)-2-[(1H-Indazol-3-yl)methylene]-6-methoxy-7-[3-(piperazin-1-yl)prop-1-ynyl]benzofuran-3(2H)-one] registered an inhibition at 1 µM in assay [1] (Table 7) of 97%. This compound had an inhibition at 0.1 µM at pim-1 kinase (Table 2) of 86%. As to `COc1ccc2c(c1/C=C\CN1CCNCC1)O/C(=C\c1n[nH]c3ccccc13)C2=O` [Compound B47, (Z)-2-[(1H-Indazol-3-yl)methylene]-6-methoxy-7-[(Z)-3-(piperizin-1-yl)prop-1-enyl]benzofuran-3(2H)-one (Z)-2-[(1H-Indazol-3-yl)methylene]-6-methoxy-7-[(Z)-3-(piperazin-1-yl)prop-1-enyl]benzofuran-3(2H)-one], the inhibition at 1 µM in assay [1] (Table 7) was 99%. In addition, testing at 0.1 µM on pim-1 kinase (Table 2) gave an inhibition of 84%.

`COc1ccc2c(c1CCCN1CCNCC1)O/C(=C\c1n[nH]c3ccccc13)C2=O` [Compound B48, (Z)-2-[(1H-Indazol-3-yl)methylene]-6-methoxy-7-[3-(piperazin-1-yl)propyl]benzofuran-3(2H)-one] displayed an inhibition at 1 µM in assay [1] (Table 7) of 96%. Further, testing at 0.1 µM on pim-1 kinase (Table 2) gave an inhibition of 75%. The corresponding values for `COc1ccc2c(c1C#CCCN1CCNCC1)O/C(=C\c1n[nH]c3ccccc13)C2=O` [Compound B49, (Z)-2-[(1H-Indazol-3-yl)methylene]-6-methoxy-7-[4-(piperazin-1-yl)but-1-ynyl]benzofuran-3(2H)-one] are 93% and 63%. As to `COc1ccc2c(c1/C=C\CCN1CCNCC1)O/C(=C\c1n[nH]c3ccccc13)C2=O` [Compound B50, (Z)-2-[(1H-Indazol-3-yl)methylene]-6-methoxy-7-[(Z)-4-(piperazin-1-yl)but-1-enyl]benzofuran-3(2H)-one], the inhibition at 1 µM in assay [1] (Table 7) was found to be 96%. Moreover, the inhibition at 0.1 µM at pim-1 kinase (Table 2) worked out at 82%.
